According to patent US20230233569A1 (Revolution Medicines, Inc., priority 2020, published 2023):
Where two headings read alike, the source gives them in different places.

How the values were obtained:
Capan-1 (K-Ras G12V) = experiment: CellTiter-Glo cell viability assay, 5-day treatment; type: cell-based; settings: Homo sapiens, CAPAN-1, 120 h, 5-day treatment; read-out: Capan-1 Cell Viability assay data (K-Ras G12V, IC50)
Outline: (§1)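 Luminescence read-out after 5 days of compound exposure, with plates first brought to room temperature for roughly 30 minutes. Values are percent of averaged DMSO wells, fitted by four-parameter logistic regression.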

NCI-H358 (K-Ras G12C) = experiment: as above; type: cell-based; settings: Homo sapiens, NCI-H358, 120 h, 5-day treatment; read-out: H358 Cell Viability assay data (K-Ras G12C, IC50)
Outline: as §1

KRAS G12S = KRAS G12S (Homo sapiens, UniProt P01116+P62937, G12S); experiment: Disruption of BRAF RBD interaction with Ras (FRET / MOA assay, with Cyclophilin A); type: biochemical
Sequence of KRAS G12S (P01116 1-169 isoform P01116-2 G12S limits assumed): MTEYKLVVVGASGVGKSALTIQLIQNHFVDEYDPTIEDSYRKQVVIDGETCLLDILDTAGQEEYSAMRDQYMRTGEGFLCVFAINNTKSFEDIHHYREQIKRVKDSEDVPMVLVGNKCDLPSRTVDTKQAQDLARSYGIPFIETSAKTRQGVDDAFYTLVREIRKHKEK
Sequence of KRAS G12S (P62937 whole entry): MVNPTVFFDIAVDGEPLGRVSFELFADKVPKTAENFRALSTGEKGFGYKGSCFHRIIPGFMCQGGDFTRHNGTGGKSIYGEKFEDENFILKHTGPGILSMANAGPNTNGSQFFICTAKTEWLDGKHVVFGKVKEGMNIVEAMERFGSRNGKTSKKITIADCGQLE
Outline: (§2)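 TR-FRET readout: a drop in ratio relative to DMSO wells marks disruption of the K-Ras:BRAF RBD complex via compound-induced K-Ras–Cyclophilin A ternary complex. Dosing used ten 3-fold steps from 30 μM final, 3 h at 25 °C, then Eu-anti-His 10 nM plus APC-anti-GST 50 nM for another 1.5 h. Values are IC50s.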

NRAS G12C = NRAS G12C (Homo sapiens, UniProt P01111+P62937, G12C); experiment: as above; type: biochemical
Sequence of NRAS G12C (P01111 whole entry G12C): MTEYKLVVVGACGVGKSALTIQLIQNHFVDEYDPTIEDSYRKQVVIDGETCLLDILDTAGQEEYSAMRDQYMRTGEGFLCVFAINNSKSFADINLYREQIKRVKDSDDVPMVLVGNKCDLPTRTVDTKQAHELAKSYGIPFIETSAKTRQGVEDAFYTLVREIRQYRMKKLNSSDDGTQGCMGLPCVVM
Sequence of NRAS G12C (P62937 whole entry): as the sequence (P62937 whole entry) above

KRAS G13D = KRAS G13D (Homo sapiens, UniProt P01116+P62937, G13D); experiment: as above; type: biochemical
Sequence of KRAS G13D (P01116 1-169 isoform P01116-2 G13D limits assumed): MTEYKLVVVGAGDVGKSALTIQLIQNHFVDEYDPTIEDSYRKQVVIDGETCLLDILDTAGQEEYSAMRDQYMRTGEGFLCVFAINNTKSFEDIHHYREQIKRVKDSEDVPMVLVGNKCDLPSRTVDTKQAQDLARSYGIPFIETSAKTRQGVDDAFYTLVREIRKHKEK
Sequence of KRAS G13D (P62937 whole entry): as the sequence (P62937 whole entry) above
Outline: as §2

KRAS G12D = KRAS G12D (Homo sapiens, UniProt P01116+P62937, G12D); experiment: as above; type: biochemical
Sequence of KRAS G12D (P01116 1-169 isoform P01116-2 G12D limits assumed): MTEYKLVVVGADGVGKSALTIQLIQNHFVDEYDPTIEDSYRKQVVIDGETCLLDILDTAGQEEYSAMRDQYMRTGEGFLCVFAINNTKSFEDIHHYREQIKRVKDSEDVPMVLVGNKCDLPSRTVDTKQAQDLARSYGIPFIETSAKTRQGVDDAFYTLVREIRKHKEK
Sequence of KRAS G12D (P62937 whole entry): as the sequence (P62937 whole entry) above
Outline: as §2

KRAS G13C = KRAS G13C (Homo sapiens, UniProt P01116+P62937, G13C); experiment: as above; type: biochemical
Sequence of KRAS G13C (P01116 1-169 isoform P01116-2 G13C): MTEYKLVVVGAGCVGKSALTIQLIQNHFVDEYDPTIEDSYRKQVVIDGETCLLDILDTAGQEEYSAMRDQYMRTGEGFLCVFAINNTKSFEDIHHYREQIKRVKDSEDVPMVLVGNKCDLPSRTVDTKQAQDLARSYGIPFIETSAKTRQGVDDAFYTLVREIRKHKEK
Sequence of KRAS G13C (P62937 whole entry): as the sequence (P62937 whole entry) above
Outline: as §2

KRAS G12C = KRAS G12C (Homo sapiens, UniProt P01116+P62937, G12C); experiment: as above; type: biochemical
Sequence of KRAS G12C (P01116 1-169 isoform P01116-2 G12C): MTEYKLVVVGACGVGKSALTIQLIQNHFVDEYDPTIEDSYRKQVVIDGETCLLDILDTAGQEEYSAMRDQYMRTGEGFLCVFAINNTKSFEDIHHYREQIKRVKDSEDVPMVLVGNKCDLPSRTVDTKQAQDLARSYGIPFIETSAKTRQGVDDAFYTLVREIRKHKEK
Sequence of KRAS G12C (P62937 whole entry): as the sequence (P62937 whole entry) above
Outline: as §2

KRAS G12V = KRAS G12V (Homo sapiens, UniProt P01116+P62937, G12V); experiment: as above; type: biochemical
Sequence of KRAS G12V (P01116 1-169 isoform P01116-2 G12V limits assumed): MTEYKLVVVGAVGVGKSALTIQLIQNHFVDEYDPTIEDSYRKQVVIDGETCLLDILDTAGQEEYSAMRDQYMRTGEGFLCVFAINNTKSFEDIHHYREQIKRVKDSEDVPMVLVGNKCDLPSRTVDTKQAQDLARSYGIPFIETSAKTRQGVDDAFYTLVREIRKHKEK
Sequence of KRAS G12V (P62937 whole entry): as the sequence (P62937 whole entry) above
Outline: as §2

KRAS WT = KRAS WT (Homo sapiens, UniProt P01116+P62937); experiment: as above; type: biochemical
Sequence of KRAS WT (P01116 1-169 isoform P01116-2 limits assumed): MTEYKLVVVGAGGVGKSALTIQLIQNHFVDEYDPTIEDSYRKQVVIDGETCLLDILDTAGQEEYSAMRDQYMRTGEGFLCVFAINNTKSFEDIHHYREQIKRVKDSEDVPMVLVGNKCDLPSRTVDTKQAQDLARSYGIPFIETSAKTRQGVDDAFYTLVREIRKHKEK
Sequence of KRAS WT (P62937 whole entry): as the sequence (P62937 whole entry) above
Outline: as §2

KRAS Q61H = KRAS Q61H (Homo sapiens, UniProt P01116+P62937, Q61H); experiment: as above; type: biochemical; settings: KRAS Q61H; read-out: KRAS Q61H FRET data IC50
Sequence of KRAS Q61H (P01116 1-169 isoform P01116-2 Q61H limits assumed): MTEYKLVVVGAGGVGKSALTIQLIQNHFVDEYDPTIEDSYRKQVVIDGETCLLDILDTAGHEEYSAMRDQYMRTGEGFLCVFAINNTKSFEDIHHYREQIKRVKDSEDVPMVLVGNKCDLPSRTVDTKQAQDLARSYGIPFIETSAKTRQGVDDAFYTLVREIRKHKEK
Sequence of KRAS Q61H (P62937 whole entry): as the sequence (P62937 whole entry) above
Outline: (§3)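 TR-FRET in 25 mM HEPES pH 7.3, 100 mM NaCl, 5 mM MgCl2, 0.1% BSA: 25 μM Cyclophilin A, 12.5 nM His6-Ras-GMPPNP, 50 nM GST-BRAF RBD with compound (10-point 3-fold series from 30 μM), 3 h at 25° C. Anti-His Eu/anti-GST APC added, 1.5 h more; IC50 from decreased FRET ratio versus DMSO.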

NRAS Q61K = NRAS Q61K (Homo sapiens, UniProt P01111+P62937, Q61K); experiment: as above; type: biochemical; settings: NRAS Q61K; read-out: NRAS Q61K FRET data IC50
Sequence of NRAS Q61K (P01111 whole entry Q61K): as the sequence (P01111 whole entry G12C) above, with C12G, Q61K counted along it
Sequence of NRAS Q61K (P62937 whole entry): as the sequence (P62937 whole entry) above
Outline: as §3

NRAS WT = NRAS WT (Homo sapiens, UniProt P01111+P62937); experiment: as above; type: biochemical; settings: NRAS WT; read-out: NRAS WT FRET data IC50
Sequence of NRAS WT (P01111 whole entry): as the sequence (P01111 whole entry G12C) above, with C12G counted along it
Sequence of NRAS WT (P62937 whole entry): as the sequence (P62937 whole entry) above
Outline: as §3

NRAS Q61R = NRAS Q61R (Homo sapiens, UniProt P01111+P62937, Q61R); experiment: as above; type: biochemical; settings: NRAS Q61R; read-out: NRAS Q61R FRET data IC50
Sequence of NRAS Q61R (P01111 whole entry Q61R): as the sequence (P01111 whole entry G12C) above, with C12G, Q61R counted along it
Sequence of NRAS Q61R (P62937 whole entry): as the sequence (P62937 whole entry) above
Outline: as §3

[1] = read-out: KRAS G12S FRET data, IC50
[2] = NRAS G12C, read-out: NRAS G12C FRET data IC50
[3] = KRAS G13D, read-out: KRAS G13D FRET data IC50
[4] = read-out: KRAS G12D FRET data, IC50
[5] = read-out: KRAS G13C FRET data, IC50
[6] = read-out: KRAS G12C FRET data, IC50
[7] = KRAS G12V, read-out: KRAS G12V FRET data IC50
[8] = KRAS WT, read-out: KRAS WT FRET data IC50
[9] = NRAS G12C FRET data IC50, NRAS G12C
[10] = KRAS G13D FRET data IC50, KRAS G13D
[11] = KRAS G12V FRET data IC50, KRAS G12V
[12] = KRAS WT FRET data IC50, KRAS WT

Structure (SMILES)	IC50 (Capan-1 (K-Ras G12V))	IC50 (NCI-H358 (K-Ras G12C))	IC50 (KRAS G12S; [1])	IC50 (NRAS G12C; [2])	IC50 (KRAS G13D; [3])	IC50 (KRAS G12D; [4])	IC50 (KRAS G13C; [5])	IC50 (KRAS G12C; [6])	IC50 (KRAS G12V; [7])	IC50 (KRAS WT; [8])	IC50 (KRAS Q61H)	IC50 (NRAS Q61K)	IC50 (NRAS WT)	IC50 (NRAS Q61R)	also measured
CCn1c(-c2cccnc2[C@H](C)OC)c2c3cc(ccc31)-c1csc(n1)C[C@H](NC(=O)[C@H](C(C)C)N(C)C(=O)N1CCC3(CCN(C)CC3)C1)C(=O)N1CCC[C@H](N1)C(=O)OCC(C)(C)C2 (atropisomer, axis not shown) [Example A565]	10 to 100 nM	10 to 100 nM	10 to 100 nM	10 to 100 nM	100 to 1000 nM	100 to 1000 nM	100 to 1000 nM	10 to 100 nM	100 to 1000 nM	10 to 100 nM	10 to 100 nM	10 to 100 nM	10 to 100 nM	10 to 100 nM	
CCn1c(-c2cccnc2[C@H](C)OC)c2c3cc(ccc31)-c1csc(n1)C[C@H](NC(=O)[C@H](C(C)C)N(C)C(=O)N1CC[C@@H](N(C)C)C1)C(=O)N1CCC[C@H](N1)C(=O)OCC(C)(C)C2 (atropisomer, axis not shown) [Example A566]	10 to 100 nM	10 to 100 nM	100 to 1000 nM	100 to 1000 nM	100 to 1000 nM	100 to 1000 nM	100 to 1000 nM	100 to 1000 nM	100 to 1000 nM	100 to 1000 nM	10 to 100 nM	10 to 100 nM	100 to 1000 nM	100 to 1000 nM	
CCn1c(-c2cccnc2[C@H](C)OC)c2c3cc(ccc31)-c1csc(n1)C[C@H](NC(=O)[C@H](C(C)C)N(C)C(=O)N1C[C@H](N)[C@@H](F)C1)C(=O)N1CCC[C@H](N1)C(=O)OCC(C)(C)C2 (atropisomer, axis not shown) [Example A567]	100 to 1000 nM	10 to 100 nM	100 to 1000 nM	10 to 100 nM	100 to 1000 nM	100 to 1000 nM	100 to 1000 nM	10 to 100 nM	100 to 1000 nM	100 to 1000 nM	10 to 100 nM	10 to 100 nM	100 to 1000 nM	100 to 1000 nM	
CCn1c(-c2cccnc2[C@H](C)OC)c2c3cc(ccc31)-c1csc(n1)C[C@H](NC(=O)[C@H](C(C)C)N(C)C(=O)N1CCC(N(C)C)CC1)C(=O)N1CCC[C@H](N1)C(=O)OCC(C)(C)C2 (atropisomer, axis not shown) [Example A571]	10 to 100 nM	10 to 100 nM									10 to 100 nM	10 to 100 nM	10 to 100 nM	100 to 1000 nM	IC50 (KRAS G12S; KRAS G12S FRET data, IC50): 100 to 1000 nM; IC50 (NRAS G12C; [9]): 10 to 100 nM; IC50 (KRAS G13D; [10]): 100 to 1000 nM; IC50 (KRAS G12D; KRAS G12D FRET data, IC50): 100 to 1000 nM; IC50 (KRAS G13C; KRAS G13C FRET data, IC50): 100 to 1000 nM; IC50 (KRAS G12C; KRAS G12C FRET data, IC50): 10 to 100 nM; IC50 (KRAS G12V; [11]): 100 to 1000 nM; IC50 (KRAS WT; [12]): 10 to 100 nM
CCn1c(-c2cccnc2[C@H](C)OC)c2c3cc(ccc31)-c1csc(n1)C[C@H](NC(=O)[C@H](C(C)C)N(C)C(=O)N1CCC[C@H](CN(C)C)C1)C(=O)N1CCC[C@H](N1)C(=O)OCC(C)(C)C2 (atropisomer, axis not shown) [Example A573]	10 to 100 nM	< 10 nM									10 to 100 nM	10 to 100 nM	10 to 100 nM	100 to 1000 nM	IC50 (KRAS G12S; KRAS G12S FRET data, IC50): 10 to 100 nM; IC50 (NRAS G12C; [9]): 10 to 100 nM; IC50 (KRAS G13D; [10]): 10 to 100 nM; IC50 (KRAS G12D; KRAS G12D FRET data, IC50): 10 to 100 nM; IC50 (KRAS G13C; KRAS G13C FRET data, IC50): 10 to 100 nM; IC50 (KRAS G12C; KRAS G12C FRET data, IC50): 10 to 100 nM; IC50 (KRAS G12V; [11]): 100 to 1000 nM; IC50 (KRAS WT; [12]): 10 to 100 nM
CCn1c(-c2cccnc2[C@H](C)OC)c2c3cc(ccc31)-c1csc(n1)C[C@H](NC(=O)[C@H](C(C)C)N(C)C(=O)N1CC(CN(C)C)(OC)C1)C(=O)N1CCC[C@H](N1)C(=O)OCC(C)(C)C2 (atropisomer, axis not shown) [Example A575]	100 to 1000 nM	100 to 1000 nM	1000 to 10000 nM	1000 to 10000 nM	1000 to 10000 nM	1000 to 10000 nM	1000 to 10000 nM	1000 to 10000 nM	1000 to 10000 nM	1000 to 10000 nM	1000 to 10000 nM	1000 to 10000 nM	1000 to 10000 nM	1000 to 10000 nM	
CCn1c(-c2cc(C3CCN(C)CC3)cnc2[C@H](C)OC)c2c3cc(ccc31)-c1cc(O)cc(c1)C[C@H](NC(=O)[C@H](C(C)C)N(C)C(=O)[C@@H]1OCC[C@@H]1c1ccccc1)C(=O)N1CCC[C@H](N1)C(=O)OCC(C)(C)C2 (atropisomer, axis not shown) [Example A577]	< 10 nM	< 10 nM	< 10 nM	< 10 nM	10 to 100 nM	10 to 100 nM	10 to 100 nM	< 10 nM	10 to 100 nM	10 to 100 nM	< 10 nM	10 to 100 nM	< 10 nM	< 10 nM	
CCn1c(-c2cccnc2[C@H](C)OC)c2c3cc(ccc31)-c1csc(n1)C[C@H](NC(=O)[C@H](CC1CC1)N(C)C(=O)N1CC(OC)C1)C(=O)N1CCC[C@H](N1)C(=O)OCC(C)(C)C2 (atropisomer, axis not shown) [Example A578]	100 to 1000 nM	10 to 100 nM	10 to 100 nM	< 10 nM	10 to 100 nM	100 to 1000 nM	10 to 100 nM	10 to 100 nM	10 to 100 nM	10 to 100 nM	10 to 100 nM	10 to 100 nM	10 to 100 nM	10 to 100 nM	
